Experiment [1] concerns RUES2 cells. Briefly: Removing individual factors or blocking signaling pathways during the ventralization stage (d6-d15). The experiment is classed as cell-based, human. On the procedure: FIG. 3. Effect of removing individual factors or blocking signaling pathways during the ‘ventralization’ stage (d6-d15) on the expression of FOXA2 and NKX2.1 in RUES2 cells cultured according to the protocol shown on the upper right of the figure. 10× tile scans of 9 (3×3) contiguous fields. Immunofluorescence images represent reproducible results from 3 independent experiments.
Day-15, -25 or -48 cultures in 48-well tissue culture plates were fixed with 4% paraformaldehyde for 15 minutes at room temperature and washed twice with PBS. The cells were permeabilized in PBS with 0.25% triton and 5% fetal donkey serum (Jackson ImmunoResearch, West Grove, Pa.) for 30 min and blocked in 5% fetal donkey serum for 2 hours at room temperature. The cell cultures were stained with one, or a combination of two or three of the following primary antibodies: FOXA2/HNF-3β (goat, Santa Cruz Biotechnology, Inc., Santa Cruz, Calif., Cat#sc-6554, clone M-20, 1:50), TTF-1/Nkx2.1 (mouse, Invitrogen, 18-0221, clone 8G7G3/1, 1:100), TTF-1/Nkx2.1 (Rabbit, Seven Hills Bioreagents, Cincinnati, Ohio, Cat#WRAB-1231, 1:1000), p63α (rabbit, Santa Cruz, sc-8344, clone H-129, 1:100), Sox2 (Rabbit, stemgent, 09-0024, 1:100), Pax 6 (rabbit, Covance, Princeton, N.J., Cat#PRB-278P, 1:300), Pax8 (mouse, Abcam, Cambridge, Mass., Cat#ab53490, 1:100), EpCAM (APC conjugated, mouse, BD Biosciences, BDB347200), Tuj1 (mouse, Sigma, T8578, Clone 2G10, 1:4000), Mucin5AC (mouse (Biotin), Abcam, ab79082, clone 45M1, 1:100), Mucin5B (rabbit, Santa Cruz, sc-20119, clone H-300, 1:100), Mucin2 (rabbit, Santa Cruz, sc-15334, clone H-300, 1:100), Foxj1 (mouse, e-bioscience, San Diego, Calif., Cat#14-9965-82, Clone: 2A5, 1:100), cc-10 (goat, Santa Cruz, clone C-20, sc-9770, 1:100), pro-SPC (rabbit, Seven Hills, WRAB-9337, 1:2000), mature-SPC (rabbit, Seven Hills, WRAB-76694, 1:1000), mature SPB (rabbit, Seven Hills, WRAB-48604, 1:1000), ABCA3 (rabbit, Seven Hills, WRAB-70565, 1:100), Mucin1 (Armenian Hamster, NeoMarkers, Fremont, Calif., Cat#HM-1630-P1ABX, clone MH1, 1:100), Podoplanin (rabbit, Santa Cruz, sc-134482 , FL-162, 1:100), AQP5 (goat, Santa Cruz, sc-9890, clone G-19, 1:100). Secondary antibodies were donkey anti-mouse whole IgG-Alexa Fluor 488, 715-545-150, donkey anti-mouse whole IgG-Alexa Fluor 647, 715-605-150, donkey anti-rabbit whole IgG-Alexa Fluor 488, 711-545-152, donkey anti-rabbit whole IgG-Cy3, 711-166-152, donkey anti-goat whole IgG-Alexa Fluor 488, donkey anti-goat whole IgG-Cy3, 705-165-147, donkey anti-goat whole IgG-Alexa Fluor 647, 705-605-147, all from Jackson ImmunoResearch.
For d6-15 lung progenitor induction (9 days) , the AFE from Example 3 were treated with a ‘ventralization’ cocktail containing CHIR99021, 3 μM (WNT signaling agonist), human FGF10, 10 ng/ml; human FGF7, 10 ng/ml; human BMP4, 10 ng/ml; murine EGF, 20 ng/ml and all-trans retinoic acid (ATRA), 0-1 μM (all from R&D, except CHIR99021 from (Stemgent, Cambridge. Mass.) and ATRA from Sigma) in SFD media for 8-10 days. This treatment produced lung and airway progenitor cells (also herein referred to as “lung field progenitor cells”). At this stage, the lung progenitor cells were early, and they might have committed to a lineage of either lung or airway epithelium, but we wouldn't be able to know because the corresponding airway and distal lung specific markers are not expressed at this stage yet.
To examine the contribution of each of the factors to the specification of lung and airway progenitors, each of the factors was withdrawn from the ‘ventralization’ cocktail (i.e., CHIR99021, FGF10, FGF7, BMP4 and EGF), or blocked by specific inhibitors (i.e., NOGGIN as biological inhibitor of BMP4 signaling and IWP2 as pharmacological inhibitor of WNT signaling), or added at different concentrations (i.e., RA 0, 0.05, 0.1, 0.5, 1 μM, and BMS493 (10 μM, Tocris) as RA inhibitor). […]

The subject of experiment [2] is RUES2 cells. Briefly: RA concentration in the ventralization cocktail (NKX2.1 and FOXA2 mRNA and protein). It is filed as cell-based, human. On the procedure:
FIG. 2.(a) Expression of NKX2.1 and FOXA2 mRNA (lower left) and protein (lower right) after culture of RUES2 cells according to the protocol on top of the panel using various concentrations of RA during the ‘ventralization’ stage. Triplicate experiments representative of 3 independent experiments, *, P<0.05, compared with 0.5 μM RA group. (b) 10× tile scan of 25 (5×5) contiguous fields showing expression of FOXA2, SOX2 and NKX2.1 in RUES2 cells cultured according to the protocol on top of the panel. (c) 20× tile scan of 4 (2×2) contiguous fields showing expression of TUJ1, NKX2.1 and FOXA2.1 in RUES2 cells cultured according to the protocol on top of panel (b). […]
Total RNA was extracted using Trizol (Invitrogen), phase lock tubes (5′ Prime) and RNeasy kit (Qiagen, Valencia, Calif.). RNA concentration was measured with a NanoDrop 2000 […] (Thermo Fisher Scientific). […] Real-time quantitative PCR was performed on ABI vii7A Thermocycler [Applied Biosystems (Life Technologies)] using ABI Power SYBR Green PCR Master Mix [Applied Biosystems (Life Technologies)]. […] Absolute quantification of each gene was obtained using a standard curve of serial diluted genomic DNA and normalized to housekeeping genes β-ACTIN and TBP (Tata Box Binding protein). […]

[3] abbreviates: factor removed from the CFKB cocktail, d6-d15.

With `Cc1c[nH]c(-c2cnc(NCCNc3ccc(C#N)cn3)nc2-c2ccc(Cl)cc2Cl)n1` [CHIR], the “effect of removing the factor on generation of FOXA2+ and FOXA2+NKX2.1+ cells” value (from here on “effect of removing the factor”) with RUES2 cells [1] (setting [3]) is on record as “severely reduced”. In the case of `Cc1ccc2nc(NC(=O)CSc3nc4c(c(=O)n3-c3ccccc3)SCC4)sc2c1` [IWP2], the “generation of NKX2.1+ cells” value in the experiment on RUES2 cells [1] (CHIR removed plus additional blockade of endogenous WNT signaling by the substance) is given as “completely abrogated”. Consider `CC1=C(/C=C/C(C)=C/C=C/C(C)=C/C(=O)O)C(C)(C)CCC1` [RA, all-trans retinoic acid], for which the “NKX2.1 mRNA and NKX2.1+ fraction” value in the experiment with RUES2 cells [2] (higher RA concentrations, FOXA2+ endoderm maintained) is recorded as “dropped”. Besides, in the experiment with RUES2 cells [2] (low RA concentrations (0.05-0.1 μM)), the “induction of NKX2.1 and FOXA2 mRNA and protein” value is “optimal induction”.

B1: FGF7: human FGF7 (KGF), factor of the ventralization cocktail (protein, UniProt P21781 32-194, looked up)
Fibroblast growth factor 7: CNDMTPEQMATNVNCSSPERHTRSYDYMEGGDIRVRRLFCRTQWYLRIDKRGKVKGTQEMKNNYNIMEIRTVAVGIVAIKGVESEFYLAMNKEGKLYAKKECNEDCNFKELILENHYNTYASAKWTHNGGEMFVALNQKGIPVRGKKTKKEQKTAHFLPMAIT
As to B1, the “effect of removing the factor” value in the experiment on RUES2 cells [1] (setting [3]) was “no effect”.

B2: FGF10: human FGF10, factor of the ventralization cocktail (protein, UniProt O15520 38-208, looked up)
Fibroblast growth factor 10: QALGQDMVSPEATNSSSSSFSSPSSAGRHVRSYNHLQGDVRWRKLFSFTKYFLKIEKNGKVSGTKKENCPYSILEITSVEIGVVAVKAINSNYYLAMNKKGKLYGSKEFNNDCKLKERIEENGYNTYASFNWQHNGRQMYVALNGKGAPRRGQKTRRKNTSAHFLPMVVHS
Turning to B2, in the experiment with RUES2 cells [1] (setting [3]), the “effect of removing the factor” value is given as “no effect”.

B3: BMP4: human BMP4, factor of the ventralization cocktail (protein, UniProt P12644 293-408, looked up)
Bone morphogenetic protein 4: SPKHHSQRARKKNKNCRRHSLYVDFSDVGWNDWIVAPPGYQAFYCHGDCPFPLADHLNSTNHAIVQTLVNSVNSSIPKACCVPTELSAISMLYLDEYDKVVLKNYQEMVVEGCGCR
Turning to B3, in the experiment with RUES2 cells [1] (setting [3]), the “generation of NKX2.1+ cells after removing the factor” value is “approximately 40%”.

B4: NOGGIN: biological inhibitor of BMP4 signaling (protein, UniProt Q13253 28-232, looked up)
Noggin: QHYLHIRPAPSDNLPLVDLIEHPDPIFDPKEKDLNETLLRSLLGGHYDPGFMATSPPEDRPGGGGGAAGGAEDLAELDQLLRQRPSGAMPSEIKGLEFSEGLAQGKKQRLSKKLRRKLQMWLWSQTFCPVLYAWNDLGSRFWPRYVKVGSCFSKRSCSVPEGMVCKPSKSVHLTVLRWRCQRRGGQRCGWIPIQYPIISECKCSC
For the molecule B4, in the experiment on RUES2 cells [1] (BMP signaling blocked by addition of the substance during ventralization stage), the “generation of FOXA2+NKX2.1+ cells” value is listed as “less than 5%”.

The values above are taken from patent publication US9988606B2, “Generation of airway and lung progenitors and epithelial cells and three-dimensional anterior foregut spheres” (THE TRUSTEES OF COLUMBIA UNIVERSITY IN THE CITY OF NEW YORK, priority 2012, dated 2018).
